This is an account of results in patent publication US20120202883A1, “EFFECTS OF IDH1 AND IDH2 MUTATIONS ON THE CELLULAR METABOLOME” (DUKE UNIVERSITY, priority 2011, published 2012).

The structures appear in SMILES notation. Where a SMILES comes first, the peptide text is derived from it.

Assay [1] concerns HOG cells. The experiment in a line: Targeted LC-MS/MS of NAA and NAAG in HOG cells incubated with NAA or NAAG media. The format is cell-based, human. As to the method: Targeted mass LC-MS/MS. Simultaneous quantification of NAA and NAAG in cell culture media, cell lysates, and tissues was done by liquid chromatography-electrospray ionization-tandem mass spectrometry (LC-ESI-MS/MS).
Sample preparation. Media above the cells and cell lysates: To 20 μL of sample 40 μL of ice-cold methanol was added, mixture vigorously agitated (FastPrep, Qbiogene, Carlsbad, Calif. 20 s, speed 6), left at −20° C. for 15 min, agitated again (same cond.), centrifuged at 16,000 g for 5 min, and 50 μL of supernatant dried by vacuum centrifuge (50° C., 1 hr, SpeedVac, Thermo Scientific, West Palm Beach, Fla.). The dry residue was dissolved by 50 μL of mobile phase A (see below) and 10 μL injected into LC-MS/MS system. Tissue samples: To […] sample of wet tissue, 300 μL of deionized water and one 4 mm ceramic bead was added in 2-mL polypropylene tube and vigorously agitated (FastPrep, 20 s, speed 4, 2 cycles). A 50 μL aliquot of the homogenate was pipetted out for total protein measurement (for tissue mass normalization purpose) and 500 μL methanol added to the original vial which was again agitated (FastPrep, same conditions), left at −20° C. for 15 min, centrifuged at 16,000 g for 5 min, and 650 μL of supernatant dried by vacuum centrifuge (SpeedVac, 50° C., 1.5 hr). The dry residue was dissolved by 50 μL of mobile phase A (see below) and 10 μL injected into LC-MS/MS system.
LC-MS/MS analysis. Equipment: Agilent 1200 series HPLC (Santa Clara, Calif.) and Sciex/Applied Biosystems API 3200 QTrap (Carlsbad, Calif.). Mobile phase A: water, 3% methanol; mobile phase B: acetonitrile/methanol, 1/1. Analytical column: Kinetex C18, 150×4.6 mm, 2.6 μm, and SafeGuard C18 4×3 mm guard-column from Phenomenex (Torrance, Calif.). Column temperature: 45° C. Elution gradient at 1 mL/min flow rate: 0-1 min 0% B, 1-2 min 0-80% B, 2-3.5 min 80% B, 3.5-4 min 80-0% B, 4-10 min 0% B. Injection volume: 10 μL. The Q1/Q3 (m/z) transitions monitored in positive electrospray ionization mode: 176/158 (NAA, quantification), 176/134 (NAA, confirmation), 305/148 (NAAG, quantification), 305/130 (NAAG, confirmation).
Calibration. A set of calibrator samples in corresponding matrix was prepared for calibration by adding appropriate amounts of pure NAA and NAAG at the following concentration levels: 0, 0.01, 0.05, 0.25, 1.25, and 6.25 μg/mL. These samples were analyzed alongside the experimental samples and accuracy acceptance criteria was 85% for each but the lowest level (0.01 μg/mL, 80%). The limit of quantification (at 80% accuracy criterion) was determined to be 10 ng/ml for both NAA and NAAG. Samples in which NAA or NAAG was not detected were assigned to have a value of 0 NAA or NAAG (FIG. 5A,B). Statistically significant differences that we reported (FIG. 5A,B) were still significant when 10 ng/ml was assigned for samples in which NAA or NAAG was not detected. Quadratic least squares regression curve fit was employed to account for slight but predictable nonlinearity (ESI of highly polar analytes) with 1/x weighing factor. The addition of methanol to the sample matrix is shared with a recently reported NAAG analysis method (32). Otherwise this procedure is, to the best of our knowledge, novel.
Univariate statistics. Welch's t-test was used to determine whether mean levels of a biochemical in one experimental group were different from mean levels in another group. […]

Assay [2] deals with HOG cells. Put plainly: Metabolomic profiling (LC-MS, GC-MS) of HOG cell lysates after 2HG treatment or IDH1 shRNA expression. Format: cell-based, human. Particulars: for number of biochemicals with altered levels: 72 hours, HOG cells vs vector, p<0.05. The text has this:
Cell lines. HOG cells were derived from a human WHO grade III anaplastic oligodendroglioma (28) and previously found not to contain exon 4 IDH1 or exon 4 IDH2 mutations (8). The HOG cell line was kindly donated by Dr. A. T. Campagnoni at UCLA. To express IDH1 and IDH2 transgenes in cells, IDH1 and IDH2 cDNAs, or cDNAs mutagenized to IDH1-R132H or IDH2-R172K, were cloned into pLenti6.2/V5 (Invitrogen, Carlsbad, Calif.). Viruses were created using these constructs in 293FT cells and these were used to transduce cells derived from the same parental pool of HOG cells for 24 h. Cells derived from the same clone were reasoned to have homogenous IDH transgene expression levels and metabolic profiles compared to pools of cells or transiently transfected cells, facilitating the identification of metabolites that have altered levels in different clones. Virus was replaced by fresh media for 48 hours and then stable clones were selected from single-cell dilutions in 5 μg/ml blasticidin for 3 weeks. Stable HOG cell lines containing IDH1 shRNA or control were constructed by transfecting HOG cells with pSuperRetro vector (OligoEngine, Seattle, Wash.) containing IDH1-specific hairpin or a scrambled sequence (5′-cat aac gag cgg aag aac g-3′). The IDH1-specific hairpin was created using the primers 5′-gat ccc cGG GAA GTT CTG GTG TCA Tat tca aga gaT ATG ACA CCA GAA CTT CCC ttt ttg gaa a-3′ and 5′-agc ttt tcc aaa aaG GGA AGT TCT GGT GTC ATA tct ctt gaa TAT GAC ACC AGA ACT TCC Cgg g-3′, with capital letters representing bases homologous to IDH1 sequence. Clones were selected with 500 μg/ml G418 for 3 weeks and expanded after single cell dilution. Percent knockdown was determined by ImageJ (v1.43, available at http://rsbweb.nih.gov/ij/, developed by Wayne Rasband, National Institutes of Health, Bethesda, Md.) analysis of the intensity of immunoblot anti-IDH1 bands, normalized to the intensity of anti-GAPDH internal control bands (FIG. S4A). The same clone of vector, IDH1-WT, and IDH1-R132H HOG cells were used in all experiments.
2HG synthesis. 2HG was synthesized by treatment of D-glutamate (Sigma-Aldrich, St. Louis, Mo.) with nitrous acid to form a lactone, which was then hydrolyzed with NaOH solution to form 2-D-hydroxyl glutarate. Purity was 93%. Powder was resuspended in PBS and filtered through a 0.22 μm filter using sterile technique for treatment of cells.
Metabolomic analysis. Cell line treatment: Cells were grown under respective experimental conditions in IMDM media (Gibco, Invitrogen, Carlsbad, Calif.) supplemented with 10% FBS. For the experiment in FIG. 2, cells were grown in a media mix that also contained either 10% PBS or 10% of a 300 mM or 75 mM 2HG solution in PBS for a final 30 mM or 7.5 mM 2HG. Cells were seeded into flasks three days before harvesting. To harvest cells, media was removed, monolayers were washed with PBS, and 0.05% trypsin/EDTA was added. Cells were incubated for 20 min at 37° C. or until cells detached. Two volumes of media were added to the Trypsin/cell mix and suspended by gentle pipetting and triteration. Cells were counted, and 10^7 cells per sample were spun down at 1000 rpm×3 min in a polystyrene tube. Cells were washed twice with PBS and then snap-frozen on dry ice and stored at −80° C. until analysis.
Metabolite analysis: Metabolomic profiling analysis of all samples was carried out in collaboration with Metabolon (Durham, N.C.) as described previously (29-31), as follows:
Sample Preparation: The sample preparation process was carried out using the automated MicroLabSTAR® system (Hamilton Company, Reno, Nev.). Recovery standards were added prior to the first step in the extraction process for QC purposes. Sample preparation was conducted using a proprietary series of organic and aqueous extractions to remove the protein fraction while allowing maximum recovery of small molecules. The resulting extract was divided into two fractions; one for analysis by LC and one for analysis by GC. […]

The subject of assay [3] is complex V (ATP synthase) of the mitochondrial electron transport chain. As to conditions: chick neurons; reference 27; cited from earlier work.
The mark [4] stands for this setting: 30 mM 2HG-treated HOG cells vs vector, p<0.001.

Turning to `CC(=O)N[C@@H](CC(=O)O)C(=O)O` [NAA, N-acetyl-aspartate], the “level of NAA in IDH1-R132H expressing cells” value in the assay on HOG cells [1] (HOG IDH1-R132H cells, 100 μM NAA media, 48 hours) was “increased the level of NAA in IDH1-R132H expressing cells to the normal level of NAA in the vector control”. In the assay on HOG cells [1] (HOG cells in media containing 100 μM NAA, 48 hours), the “intracellular NAA levels compared to controls” value is given as “higher”. Further, the “NAAG in HOG cells expressing IDH1-R132H” value in the assay on HOG cells [1] (after NAA treatment (100 μM NAA media, 48 hours)) is “did not increase”.

Regarding `CC(=O)N[C@@H](CC(=O)O)C(=O)N[C@@H](CCC(=O)O)C(=O)O` [NAAG, N-acetyl-aspartyl-glutamate] (Ac-Asp-Glu-OH), the “NAA levels in NAAG-treated cells” value in the assay on HOG cells [1] (10 μM NAAG, all groups (vector, IDH1-WT, IDH1-R132H)) was “modestly increased”. The “intracellular NAAG levels compared to the no treatment group” value with HOG cells [1] (HOG cells treated with 10 μM NAAG, 48 hours) is reported as “increased”.

For `O=C(O)CC[C@@H](O)C(=O)O` [2HG, 2-D-hydroxyl glutarate], the “number of biochemicals with altered levels” value with HOG cells [2] (7.5 mM 2HG) is 117. The “2HG elevation (intracellular)” value in the assay on HOG cells [2] (30 mM 2HG group, HOG lysate vs vector, p<0.001) was 54 fold. Further, the “number of biochemicals with altered levels” value in the assay on HOG cells [2] (30 mM 2HG) is 130. Further, the “reduced and oxidized glutathione” value in the assay on HOG cells [2] (30 mM 2HG-treated HOG cells vs vector) is “not significantly affected”. The α-ketoglutarate higher with HOG cells [2] (30 mM 2HG-treated HOG cells vs vector, non-significant, p=0.10) is given as 1.3 fold. The “N-acetyl-aspartate (NAA) lower” value in the assay on HOG cells [2] (30 mM 2HG-treated HOG cells vs vector, not significantly changed, p=0.38) is 1.1 fold. In the assay with HOG cells [2] (setting [4]), the GPC higher turned out to be 3.0 fold, the NAAG lower amounted to 1.8 fold and the choline phosphate lower stood at 100 fold. Moreover, the glutamate increased in the assay with HOG cells [2] (30 mM 2HG-treated HOG cells vs vector, p=0.002) is reported as 1.4 fold. Besides, in assay [3], the “effect on complex V (ATP synthase)” value was “impair”.
